# Experimental data published in patent US20080003127A1, “Non-Ferrous Metal Cover Gases” (Honeywell International Inc., priority 2006, published 2008).
# Like-named read-outs stand apart in the source and are kept apart here.
# What was measured:
# Boiling point = format: physicochemical; conditions: for normal boiling point: trans- vs cis-isomer
# Experimental: In addition, preferred cover gas compositions of the present invention comprise […] compounds wherein each compound present in more than an insubstantial amount has a boiling point of less than about 25° C., and even more preferably less than about 0° C. Cover gases that have boiling points close to or above room temperature (i.e. which are liquids at room temperature) typically require additional metering equipment to disperse the cover gas material in a controlled fashion onto the surface of the molten metal.
# [1] = Mg cover gas test: magnesium pieces in quartz tube, oven heated to about 700° C. under cover gas flow, visual inspection; conditions: for performance as cover gas: concentrations at or above about 1.5% by volume; for relative performance as cover gas: at about 0.5% by volume
# Experimental: A quartz tube having a well was equipped with a metered source of cover gas and a thermocouple which was placed in the well. The well was filled with about 0.2 to 0.3 g of solid magnesium pieces. The cover gas was a mixture of air (a carrier gas) and trans-HFO-1234ze. […]
# The tube containing the magnesium was placed in an oven. A flow of cover gas through the tube and over the well containing the magnesium was then established at about 1 liter/minute. The oven was then heated to about 700° C. The flow of cover gas proceeded until a surface film was formed on the magnesium or the magnesium ignited.
# After the test was complete, the magnesium was removed from the oven and visually inspected to determine the quality of the cover gas.
# The experiments of Examples 1-5 were repeated, except that the cover gas contained […] SF6 or HFC-134a.
# [2] = background statement in words; cited from earlier work
# [3] = Toxicity, stated in words (no method given); conditions: comparison in words, found by applicants
# test subject (e.g. mice) [4] = assay: 4-hour LC-50 (concentration in air that kills 50% of test subjects, single exposure); format: in vivo; conditions: single 4-hour exposure
# Experimental: Preferably, fluoroolefins used in the present compositions have low or no toxicity. In this regard, it is preferred that fluoroolefin components that a present in the compositions in more than an insubstantial amount have a LC-50 value of at least about 100,000 ppm, and more preferably at least about 200,000 ppm. As used herein, the term “LC-50 value” means the concentration of the fluoroolefin in air that will kill 50% of test subject (e.g. mice) when administered as a single exposure (e.g. 4 hours). […] For comparison, C2F5C(O)CF(CF3)2 (a fluoroketone cover gas marketed by Minnesota Mining and Manufacturing Co. of St. Paul, Minn., under the tradename Novec™) has a 4-hour LC-50 of about 100,000.
# test subject (e.g. mice) [5] = conditions: single 4-hour exposure; comparison compound; cited from earlier work
# [6] = cardiac sensitization tests; comparison compound; cited from earlier work
# [7] = 1.5 Vol. % of F-Source in Air, about 700° C.
# [8] = 4.5 Vol. % of F-Source in Air, about 700° C.
compound,measurement,setting,value
"FC(F)(F)/C=C\Cl [cis-HFCO-1233zd, cis-1,1,1-trifluoro-3-chloro-propene]",Boiling Point (° C.),Boiling point; Table A,+19 °C
"FC=CC(F)(F)F [cis-HFO-1234ze, 1,1,1,3-tetrafluoropropene]",normal boiling point,Boiling point,9 °C
"FS(F)(F)(F)(F)F [SF6, sulfurhexafluoride]",Quality of Mg Protection,"[1]; 0.11 Vol. % of F-Source in Air, about 700° C.",failure; Mg ignited
same,Quality of Mg Protection,"[1]; 0.20 Vol. % of F-Source in Air, about 700° C.","several brownish regions, very little luster,"
same,Quality of Mg Protection,"[1]; 0.43 Vol. % of F-Source in Air, about 700° C.",coating less white; brownish regions;
same,Quality of Mg Protection,[1]; [7],white coating; pieces not stuck together
same,Quality of Mg Protection,[1]; [8],white coating; pieces not stuck together
same,performance as cover gas,[1],performed well
same,Boiling Point (° C.),Boiling point; Table A,−82 °C
same,toxicity (known),[2],non-toxic
FC(F)(F)C(F)(F)F [C2F6],Boiling Point (° C.),Boiling point; Table A,−78 °C
"C=C(Cl)C(F)(F)F [HFCO-1233xf, 1,1,1-trifluoro-2-chloro-propene]",Boiling Point (° C.),Boiling point; Table A,+12 °C
"F/C=C/C(F)(F)F [trans-HFO-1234ze, trans-1,3,3,3-tetrafluoropropene]",Quality of Mg Protection,"[1]; 0.09 Vol. % of F-Source in Air, about 700° C.","a few brown specks, well protected in general"
same,Quality of Mg Protection,"[1]; 0.26 Vol. % of F-Source in Air, about 700° C.","white with dark spots, no pieces stuck together"
same,Quality of Mg Protection,"[1]; 0.46 Vol. % of F-Source in Air, about 700° C.",white coating with no brown spots
same,Quality of Mg Protection,[1]; [7],white coating; pieces not stuck together
same,Quality of Mg Protection,[1]; [8],white coating; pieces not stuck together
same,protection of magnesium (visual inspection),"[1]; Example 1: about 4.5% by volume in air, about 700° C.",well protected
same,protection of magnesium (visual inspection),[1]; Example 2: about 1.5% by volume in air,well protected
same,protection of magnesium (visual inspection),[1]; Example 3: about 0.5% by volume in air,well protected
same,protection of magnesium (visual inspection),[1]; Example 4: about 0.2% by volume in air,well protected
same,protection of magnesium (visual inspection),[1]; Example 5: about 0.1% by volume in air,protected in general
same,relative performance as cover gas,[1],performing better than HFC-134a
same,performance as cover gas,[1],performed well
same,Boiling Point (° C.),Boiling point; Table A,−18.4 °C
same,normal boiling point,Boiling point,−18.4 °C
same,relative toxicity between isomers,[3],less toxic than the cis-isomer
"FC(F)=CC(F)(F)F [HFO-1225zc, CF3CH═CF2]",relative toxicity between isomers,[3],much more toxic
"FN(F)F [NF3, nitrogen trifluoride]",Boiling Point (° C.),Boiling point; Table A,−121 °C
same,toxicity (known),[2],toxic and/or hazardous
"FC=CC(F)(F)F [HFO-1234ze, 1,1,1,3-tetrafluoropropene]",4-hour LC-50,test subject (e.g. mice) [4],"at least 100,000 ppm"
"C=C(F)C(F)(F)F [HFO-1234yf, 1,1,1,2-tetrafluoropropene]",4-hour LC-50,test subject (e.g. mice) [4],"at least 200,000 ppm"
same,Boiling Point (° C.),Boiling point; Table A,−30 °C
"FC(F)(F)/C=C/Cl [trans-HFCO-1233zd, trans-1,1,1-trifluoro-3-chloro-propene]",Boiling Point (° C.),Boiling point; Table A,+19 °C
"FB(F)F [boron trifluoride (BF3), boron trifluoride]",toxicity (known),[2],very toxic
O=C(C(F)(F)C(F)(F)F)C(F)(C(F)(F)F)C(F)(F)F [C2F5C(O)CF(CF3)2],4-hour LC-50,test subject (e.g. mice) [5],"about 100,000 ppm"
same,Boiling Point (° C.),Boiling point; Table A,49 °C
same,NOAEL,[6],10 vol. %
"O=C=O [CO2, carbon dioxide]",Boiling Point (° C.),Boiling point,−78 °C
"F/C=C(\F)C(F)(F)F [cis-HFO-1225ye, cis-1,1,1,2,3-pentafluoropropene]",relative toxicity between isomers,[3],relatively low degree of toxicity
methoxy-nonafluorobutane [HFE-7100],Boiling Point (° C.),Boiling point; Table A,61 °C
"O=S(=O)(F)F [SO2F2, sulfuryl fluoride]",Boiling Point (° C.),Boiling point; Table A,−55 °C
same,toxicity (known),[2],toxic and/or hazardous
"FCC(F)(F)F [HFC-134a, 1,1,1,2-tetrafluoroethane]",Quality of Mg Protection,"[1]; 0.10 Vol. % of F-Source in Air, about 700° C.","most brown specks, protected in general"
same,Quality of Mg Protection,"[1]; 0.60 Vol. % of F-Source in Air, about 700° C.",white coating with no brown spots
same,Quality of Mg Protection,[1]; [7],white coating; pieces not stuck together
same,Quality of Mg Protection,[1]; [8],white coating; pieces not stuck together
same,relative performance as cover gas,[1],performing better than SF6
same,performance as cover gas,[1],performed well
same,Boiling Point (° C.),Boiling point; Table A,−26 °C
F/C=C(\F)C(F)F [cis-HFO-1234ye],Boiling Point (° C.),Boiling point,+2 °C
O=NF [nitrosyl fluoride],toxicity (known),[2],toxic and/or hazardous
"CC(F)F [HFC-152a, difluoroethane]",Boiling Point (° C.),Boiling point; Table A,−25 °C
